This is an account of results in patent US20230167118A1, “DEGRADATION OF BRUTON'S TYROSINE KINASE (BTK) BY CONJUGATION OF BTK INIDBITORS WITH E3 LIGASE LIGAND AND METHODS OF USE” (BEIGENE, LTD., priority 2020, published 2023).

One experiment concerns the target T1, BTK (Homo sapiens, UniProt Q06187).
T1 construct: High control=Cell group with added DMSO and without compound, indicating microplate readings without BTK degradation; endogenous in cells; host or cells: TMD-8 cells
Nature of the experiment: Cell Degradation: BTK degradation in TMD-8 cells, HTRF assay. The experiment is classed as cell-based. Conditions: 6 h treatment, IC50 (DC50) of BTK degradation. On the procedure:
TMD-8 cells are treated with compounds in 0.2% DMSO, dilution is done according to the following protocol: (1) make 500× stock solution in DMSO from 1 mM by 6-fold dilution, total 8 doses were included; (2) make 2× solution in cell culture medium by transferring 0.5 μl 500× stock solution into 125 μl medium; (3) 15 μl of 2× solution is added to cells and incubate for 6 h.
After 6 h treatment, add […] 4×lysis buffer to each well; seal the plate and incubate 30 min at room temperature on a plate shaker; Once the cells are lysed, 16 μL of cell lysate are transferred to a PE 384-well HTRF detection plate; 4 μL of pre-mixed HTRF antibodies are added to each well; Cover the plate with a plate sealer, spin 1000 rpm for 1 min, Incubate overnight at room temperature; Read on BMG PheraStar with HTRF protocol (337 nm-665 nm-620 nm).
The inhibition (degradation) percentage of the compound was calculated by the following equation: Inhibition percentage of Compound=100-100× (Signal-low control)/(High control-low control), wherein signal=each test compound group
Dmax is the maximum percentage of inhibition (degradation).
The IC50 (DC50) value of a compound can be obtained by fitting the following equation
Y=Bottom+(TOP-Bottom)/(1+((IC50/X)^hillslope))
(§1) Wherein, X and Y are known values, and IC50, Hillslope, Top and Bottom are the parameters obtained by fitting with software. Y is the inhibition percentage (calculated from the equation), X is the concentration of the compound; IC50 is the concentration of the compound when the 50% inhibition is reached. The smaller the IC50 value is, the stronger the inhibitory ability of the compound is. Vice versa, the higher the IC50 value is, the weaker the ability the inhibitory ability of the compound is; Hillslope represents the slope of the fitted curve, generally around 1 *; Bottom represents the minimum value of the curve obtained by data fitting, which is generally 0%±20%; Top represents the maximum value of the curve obtained by data fitting, which is generally 100%±20%. The experimental data were fitted by calculating and analyzing with Dotmatics data analysis software.

The next experiment relates to HEK-293 cells. The experiment is described as follows: HEK-293 Cytotoxicity Assay (CellTiter-Glo). The experiment is classed as cell-based. Conditions: Homo sapiens, HEK293, 72 h incubation, CellTiter-Glo luminescence. The procedure:
HEK-293 Cytotoxicity Assay
HEK-293 cells are treated with compounds diluted in 0.2% DMSO, dilution is done according to the following protocol: (1) make 500× stock solution in DMSO from 5 mM by 4-fold dilution, total 8 doses were included; (2) make 2× solution in cell culture medium by transferring 0.5 ul 500× stock solution into 125 ul medium; (3) 50 ul of 2× solution is added to cells and incubate for 72 h.
Add 25 μl of the CellTiter-Glo®Reagent [I (Promega)—Cat No. G7572] to each well in the 96-well plate. Mix contents for 2 minutes on an orbital shaker to induce cell lysis. Allow the plate to incubate at room temperature for 10 minutes to stabilize luminescent signal. Record luminescence on BMG PheraStar with luminescence protocol.
as §1, with “The IC50 value of a compound can be obtained by fitting the following equation. Y=Bottom+(TOP−Bottom)/(1+((IC50/X)^hillslope)) Wherein,” for “Wherein,”, “1*;” for “1 *;”
In general terms: ATP-based viability assays read luminescence as a measure of living cells.

T1 sequence (Q06187 whole entry): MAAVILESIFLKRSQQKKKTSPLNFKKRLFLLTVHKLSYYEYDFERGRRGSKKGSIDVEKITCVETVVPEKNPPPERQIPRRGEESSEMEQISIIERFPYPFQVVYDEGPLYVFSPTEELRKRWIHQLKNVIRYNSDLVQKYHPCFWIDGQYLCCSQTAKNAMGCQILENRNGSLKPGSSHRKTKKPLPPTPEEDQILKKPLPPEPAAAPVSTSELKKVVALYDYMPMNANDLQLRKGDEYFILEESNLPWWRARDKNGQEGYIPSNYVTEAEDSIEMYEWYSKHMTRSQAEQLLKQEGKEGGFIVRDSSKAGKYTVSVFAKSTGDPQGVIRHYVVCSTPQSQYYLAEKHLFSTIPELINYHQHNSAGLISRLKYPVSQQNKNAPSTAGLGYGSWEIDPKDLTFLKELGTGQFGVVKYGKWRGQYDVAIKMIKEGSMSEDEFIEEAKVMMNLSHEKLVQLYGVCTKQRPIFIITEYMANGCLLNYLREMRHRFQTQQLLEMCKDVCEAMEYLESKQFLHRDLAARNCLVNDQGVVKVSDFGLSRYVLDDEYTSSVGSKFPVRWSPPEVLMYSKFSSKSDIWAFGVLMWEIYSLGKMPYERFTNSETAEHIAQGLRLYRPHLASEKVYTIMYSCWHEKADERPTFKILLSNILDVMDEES

A word on the DC50: it is the concentration giving 50% degradation. As a reminder, the IC50 is the midpoint of a concentration-inhibition curve. A low value points to greater potency. With `Cc1cc(-c2ncnc3[nH]c(-c4ccc(N5CCN(CC6CCN(c7ccc(N8CCC(=O)NC8=O)cc7)CC6)CC5)cc4)nc23)ccc1[C@@H](C)NC(=O)c1nc(C(C)(C)C)no1` [Example 25, (R)-3-(tert-butyl)-N-(1-(4-(8-(4-(4-((1-(4-(2,4-dioxotetrahydropyrimidin-1(2H)-yl)phenyl)piperidin-4-yl)methyl)piperazin-1-yl)phenyl)-9H-purin-6-yl)-2-methylphenyl)ethyl)-1,2,4-oxadiazole-5-carboxamide], the DC50 on BTK came out at 1.4 nM. Further, the IC50 in the experiment on HEK-293 cells is over 10000 nM.

For `Cc1cc(-c2ncnc3[nH]c(-c4ccc(N5CCN(CCC6CCN(c7ccc(N8CCC(=O)NC8=O)c(Cl)c7)CC6)CC5)nc4)cc23)ccc1[C@@H](C)NC(=O)c1nc(C(C)(C)C)no1` [Example 26, (R)-3-(tert-butyl)-N-(1-(4-(6-(6-(4-(2-(1-(3-chloro-4-(2,4-dioxotetrahydropyrimidin-1(2H)-yl)phenyl)piperidin-4-yl)ethyl)piperazin-1-yl)pyridin-3-yl)-7H-pyrrolo[2,3-d]pyrimidin-4-yl)-2-methylphenyl)ethyl)-1,2,4-oxadiazole-5-carboxamide], the DC50 on BTK worked out at 4.7 nM. Besides, the IC50 in the experiment on HEK-293 cells is over 10000 nM.

At BTK, `COc1ccc(C(=O)N2CCC(CN3CCC(Oc4ccc(-c5cc6c(-c7ccc(CNC(=O)c8nc(C(C)(C)C)no8)c(C)c7)ncnc6[nH]5)cc4)CC3)CC2)cc1N1CCC(=O)NC1=O` [Example 27, 3-(tert-butyl)-N-(4-(6-(4-((1-((1-(3-(2,4-dioxotetrahydropyrimidin-1(2H)-yl)-4-methoxybenzoyl)piperidin-4-yl)methyl)piperidin-4-yl)oxy)phenyl)-7H-pyrrolo[2,3-d]pyrimidin-4-yl)-2-methylbenzyl)-1,2,4-oxadiazole-5-carboxamide] displayed a DC50 of 1.9 nM. The compound further displayed an IC50 with HEK-293 cells of over 10000 nM.

As for `Cc1c(NC(=O)c2ccc(C(C)(C)O)cc2F)cc(F)cc1-c1ncnc2[nH]c(-c3ccc(C4CCN(CC5CCN(c6ccc(N7CCC(=O)NC7=O)cc6)CC5)CC4)cc3)cc12` [Example 28, N-(3-(6-(4-(1-((1-(4-(2,4-dioxotetrahydropyrimidin-1(2H)-yl)phenyl)piperidin-4-yl)methyl)piperidin-4-yl)phenyl)-7H-pyrrolo[2,3-d]pyrimidin-4-yl)-5-fluoro-2-methylphenyl)-2-fluoro-4-(2-hydroxypropan-2-yl)benzamide], it took 1.5 nM to reach half-maximal degradation at BTK (DC50). Also, the IC50 with HEK-293 cells turned out to be 4240 nM.

Regarding `C=C(C)c1ccc(C(=O)Nc2cc(F)cc(-c3ncnc4[nH]c(-c5ccc(C6CCN(CC7CCN(c8ccc(N9CCC(=O)NC9=O)cc8)CC7)CC6)cc5)cc34)c2C)c(F)c1` [Example 29, N-(3-(6-(4-(1-((1-(4-(2,4-dioxotetrahydropyrimidin-1(2H)-yl)phenyl)piperidin-4-yl)methyl)piperidin-4-yl)phenyl)-7H-pyrrolo[2,3-d]pyrimidin-4-yl)-5-fluoro-2-methylphenyl)-2-fluoro-4-(prop-1-en-2-yl)benzamide], it took 10.2 nM to reach half-maximal degradation on BTK (DC50). In the experiment with HEK-293 cells, this compound yielded an IC50 of over 10000 nM.

Consider `Cc1cc(-c2ncnc3[nH]c(-c4ccc(N5CCN(CC6CCN(c7ccc(N8CCC(=O)NC8=O)cc7)CC6)CC5)cc4)cc23)ccc1CNC(=O)c1noc(C(C)(C)C)n1` [Example 30, 5-(tert-butyl)-N-(4-(6-(4-(4-((1-(4-(2,4-dioxotetrahydropyrimidin-1(2H)-yl)phenyl)piperidin-4-yl)methyl)piperazin-1-yl)phenyl)-7H-pyrrolo[2,3-d]pyrimidin-4-yl)-2-methylbenzyl)-1,2,4-oxadiazole-3-carboxamide], for which, on BTK, it took 1.7 nM to reach half-maximal degradation (DC50). In the experiment on HEK-293 cells, this compound gave an IC50 of over 10000 nM.
